From article PMC6980506, “Comparative pharmacokinetics and pharmacodynamics of the advanced Retinol-Binding Protein 4 antagonist in dog and cynomolgus monkey” (PLoS ONE, 2020)
Like-named read-outs stand apart in the source and are kept apart here.

What was measured:
bisretinoid synthesis = system: bisretinoid synthesis; parameters: method as in PMID 29871924; settings: Abca4-/- mouse model of Stargardt disease; cited from earlier work
[1] = Single dose pharmacokinetic study in cynomolgus monkey; assay type: in vivo
Procedure: Pharmacokinetic studies were conducted in male beagle dogs and male cynomolgus monkeys at SRI International, Menlo Park, CA. General procedures for animal care and housing were in accordance with the National Research Council (NRC) Guide for the Care and Use of Laboratory Animals (1996) and the Animal Welfare Standards incorporated in 9 CFR Part 3, 1991 and complied with guidelines set forth by the ARVO Animal Statement for the Use of Animals in Ophthalmic and Vision Research. During the course of the PK experiments, cynomolgus monkeys were individually housed in stainless steel primary enclosures in an AAALAC-accredited facility. Animals were fed a commercial monkey chow, and supplemental food was provided (fresh fruits, vegetables, seeds, and nuts). Reverse osmosis-purified drinking water was available at all times. Cynomolgus monkeys were maintained on a 12:12 hour light:dark cycle at the 64–84°F temperature and 30–70% humidity. Monkeys had access to enrichment opportunities (grooming devices, foraging devices, activity panels and mirrors) and were provided auditory stimuli and human interaction enrichment throughout the study. Blood samples were collected by venipuncture of a peripheral vein. Animals were acclimated to the squeeze back mechanism in their home cage by repeated, short periods of restraint during general husbandry procedures for at least 2 weeks prior to dosing. Animal were not removed from their cages for collection, and no anesthesia/analgesic agents were used for blood collection. […] For PK experiments, beagle dogs were individually housed in enclosed run (≥ 4 ft x 6 ft). Dogs were exposed to their daily ration of food, Harlan Teklad 2025C Certified Global 25% Protein Dog Diet. Water was provided from the public water supply (municipal tap water) ad libitum. Dogs were maintained on a 12:12 hour light:dark cycle at the 72–73°F temperature and 40–71% humidity. Every effort was made to minimize, if not eliminate, pain and suffering in all animals in this study. No restraining devices were used in blood collecting procedures. Dogs were gentle hand-held to restrain by trained technicians with the dogs foreleg extended for sample collection of blood from cephalic vein. Animals were awake during blood sample collection with no anesthesia/analgesic agents used, and positive reinforcement by the technician was provided following collection. […] All dogs were released back to the colony after the study was completed. Male beagle dogs and male cynomolgus monkey received a single i.v. dose of a test compound at 0.5 mg kg^−1 (dog) and 1 mg kg^−1 (monkey) or a single p.o. dose of a test compound of at 2 mg kg^−1 (dog) and 5 mg kg^−1 (monkey). The number of animals that was used in PK experiments is 3 per study group. Intravenous administration vehicle was 3% DMA/45% PEG300/12% ethanol/40% sterile water; p.o. vehicle was 2% Tween 80 in 0.9% saline. […] Blood samples were processed to plasma. Following protein extraction with acetonitrile, compound concentrations in plasma were measured by LC-MS/MS. The plasma drug level data were analyzed using WinNonlin software package; Model 201 (for i.v. bolus administration);was used for the analysis of i.v. data, and Model 200 (for extravascular administration) was used for the analysis of the p.o. data. Aliquots of pre-dose plasma samples, as well as aliquots of plasma PK samples, were used for the analysis of the plasmabiomarker, RBP4.
Administration to Non-Human Primates
II. MATERIALS AND METHODS

[2] = Cyno, 5.0 mg kg^−1 p.o., mean ± SD, n=3
[3] = male, cynomolgus monkey, plasma, iv, 1 mg/kg, non-human primate, iv 1.0 mg/kg, read-out: Plasma level, Individual animals
[4] = male, cynomolgus monkey, plasma, iv, 1 mg/kg, non-human primate, iv 1.0 mg/kg, read-out: Plasma level, Mean
[5] = male, cynomolgus monkey, plasma, po, 5 mg/kg, non-human primate, po 5 mg/kg, read-out: Plasma level, Individual animals
[6] = male, cynomolgus monkey, plasma, po, 5 mg/kg, non-human primate, po 5 mg/kg, read-out: Plasma level, Mean

Cc1cc(C(=O)O)nc(N2C[C@H]3C[C@@H](c4ccccc4C(F)(F)F)C[C@H]3C2)n1 [BPN-14136]
bisretinoid synthesis (bisretinoid synthesis): significantly inhibited bisretinoid synthesis | %F, bioavailability ([1]; Cyno, 5.0 mg kg^−1 p.o. vs 1.0 mg kg^−1 i.v.): 84.3 ± 24.8% | AUCinf [1, 2]: 826.6 ± 243.1 µg·h/mL | Cmax [1, 2]: 31500 ± 200 ng/mL | AUC(0-inf) ([1]; male, cynomolgus monkey, plasma, iv, 1 mg/kg, Cyno, 1.0 mg kg^−1 i.v., mean ± SD, n=3): 196 ± 42.2 µg·h/mL | Cmax ([1]; male, cynomolgus monkey, plasma, iv, 1 mg/kg, Cyno, 1.0 mg kg^−1 i.v., mean ± SD, n=3, read-out: Cmax, maximum observed concentration at first time point): 11400 ± 600 ng/mL | concentration at 0.0083 hr [1, 3]: 10900 ng/mL | concentration at 0.0083 hr [1, 4]: 11400 ng/mL | concentration at 0.25 hr ([1]; male, cynomolgus monkey, plasma, iv, 1 mg/kg, non-human primate, iv 1.0 mg/kg, 0.25 hr, read-out: Plasma level, Individual animals): 10500 ng/mL | concentration at 0.25 hr ([1]; male, cynomolgus monkey, plasma, iv, 1 mg/kg, non-human primate, iv 1.0 mg/kg, 0.25 hr, read-out: Plasma level, Mean): 10700 ng/mL | concentration at 0.5 hr [1, 3]: 9300 ng/mL | concentration at 0.5 hr [1, 4]: 9570 ng/mL | concentration at 1 hr [1, 3]: 9470 ng/mL | concentration at 1 hr [1, 4]: 9060 ng/mL | concentration at 2 hr [1, 3]: 8910 ng/mL | concentration at 2 hr [1, 4]: 8080 ng/mL | concentration at 4 hr [1, 3]: 7450 ng/mL | concentration at 4 hr [1, 4]: 7080 ng/mL | concentration at 8 hr [1, 3]: 6160 ng/mL | concentration at 8 hr [1, 4]: 5890 ng/mL | concentration at 12 hr [1, 3]: 4470 ng/mL | concentration at 12 hr [1, 4]: 4780 ng/mL | concentration at 24 hr [1, 3]: 2840 ng/mL | concentration at 24 hr [1, 4]: 2930 ng/mL | concentration at 36 hr ([1]; male, cynomolgus monkey, plasma, iv, 1 mg/kg, non-human primate, iv 1.0 mg/kg, 36 hr, read-out: Plasma level, Mean): 1670 ng/mL | concentration at 48 hr ([1]; male, cynomolgus monkey, plasma, iv, 1 mg/kg, non-human primate, iv 1.0 mg/kg, 48 hr, read-out: Plasma level, Mean): 1050 ng/mL | AUC(0-t) ([1]; male, cynomolgus monkey, plasma, iv, Cyno, 1.0 mg kg^−1 i.v., mean ± SD, n=3): 171 ± 27 µg·h/mL | clearance ([1]; male, cynomolgus monkey, plasma, iv, Cyno, 1.0 mg kg^−1 i.v., mean ± SD, n=3, read-out: CL, total body clearance (converted)): 5.25 mL/h/kg | half-life ([1]; male, cynomolgus monkey, plasma, iv, Cyno, 1.0 mg kg^−1 i.v., mean ± SD, n=3, read-out: T1/2, apparent terminal half-life (converted)): 15.6 ± 3.3 h | Vd ([1]; male, cynomolgus monkey, plasma, iv, Cyno, 1.0 mg kg^−1 i.v., mean ± SD, n=3, read-out: Vss, volume of distribution at steady state): 0.113 ± 0.004 L/kg | bioavailability ([1]; male, cynomolgus monkey, plasma, oral, 5 mg kg^−1, Cyno, 5.0 mg kg^−1 p.o. vs 1.0 mg kg^−1 i.v., read-out: %F, bioavailability): ~84% | AUC(0-inf) ([1]; male, cynomolgus monkey, plasma, po, 5 mg/kg, Cyno, 5.0 mg kg^−1 p.o., mean ± SD, n=3): 676 µg·h/mL | Cmax ([1]; male, cynomolgus monkey, plasma, po, 5 mg/kg, Cyno, 5.0 mg kg^−1 p.o., mean ± SD, n=3, read-out: Cmax): 31400 ng/mL | concentration at 0.25 hr ([1]; male, cynomolgus monkey, plasma, po, 5 mg/kg, non-human primate, po 5 mg/kg, 0.25 hr, read-out: Plasma level, Individual animals): 9720 ng/mL | concentration at 0.25 h ([1]; male, cynomolgus monkey, plasma, po, 5 mg/kg, non-human primate, po 5 mg/kg, 0.25 hr, read-out: Plasma level, Mean): 11100 ng/mL | concentration at 0.5 h [1, 5]: 28100 ng/mL | concentration at 0.5 h [1, 6]: 22200 ng/mL | concentration at 1 hr [1, 5]: 24600 ng/mL | concentration at 1 hr [1, 6]: 29800 ng/mL | concentration at 2 hr [1, 5]: 32400 ng/mL | concentration at 2 hr [1, 6]: 31200 ng/mL
